Patent US9845322B2 (Hoffmann-La Roche Inc., priority 2016, dated 2017)
Read-outs that look alike come from different tables or passages of the source.

Tested on: HBsAg secretion in HepG2.2.15 cells
Assay: HBsAg assay (chemiluminescence immunoassay of secreted HBsAg in culture supernatant)
Type: cell-based, HBV
Details: concentration at which HBsAg secretion was reduced by 50% compared to the no drug control, read-out: IC50 (HBsAg assay)
How it was run: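 HepG2.2.15 cells (1.5×10^4/well, duplicate) treated with three-fold compound dilutions, 1% DMSO final, DMSO as no-drug control. Secreted HBsAg in supernatant quantified semi-quantitatively by chemiluminescence immunoassay; IC50 is concentration reducing HBsAg 50% versus no-drug control.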

[1] = Hepatitis B virus, HepG2.2.15, HepG2.2.15 cells

Compound | IC50 [1] | IC50 (HepG2.2.15 cells)
CC1c2cnc(-c3ncccn3)nc2CCN1c1cc(F)c(F)c(OCC2CC2(F)F)c1 (stereo not shown) [Example 82] | 30 nM | –
CC1c2cnc(-c3ncccn3)nc2CCN1c1cc(OC2CCOCC2)cc(F)n1 (stereo not shown) [Example 172, 6-(6-fluoro-4-tetrahydropyran-4-yloxy-2-pyridyl)-5-methyl-2-pyrimidin-2-yl-7,8-dihydro-5H-pyrido[4,3-d]pyrimidine] | 56 nM | –
CC1c2cnc(-c3ncccn3)nc2CCN1c1cc(F)c(F)c(OCCCN2CCNC(=O)C2)c1 (stereo not shown) [Example 107, 4-[3-[2,3-difluoro-5-(5-methyl-2-pyrimidin-2-yl-7,8-dihydro-5H-pyrido[4,3-d]pyrimidin-6-yl)phenoxy]propyl]piperazin-2-one] | 171 nM | –
CC1c2cnc(-c3ncccn3)nc2CCN1c1cc(F)c(F)c(OCCCN2CCN(S(C)(=O)=O)CC2)c1 (stereo not shown) [Example 110, 6-[3,4-difluoro-5-[3-(4-methylsulfonylpiperazin-1-yl)propoxy]phenyl]-5-methyl-2-pyrimidin-2-yl-7,8-dihydro-5H-pyrido[4,3-d]pyrimidine] | 79 nM | –
COCCCNC(=O)c1cc(F)cc(N2CCc3nc(-c4ncccn4)ncc3C2C)c1 (stereo not shown) [Example 177, 3-fluoro-N-(3-methoxypropyl)-5-(5-methyl-2-pyrimidin-2-yl-7,8-dihydro-5H-pyrido[4,3-d]pyrimidin-6-yl)benzamide] | 290 nM | –
CC1c2cnc(-c3ccccn3)nc2CCN1c1cc(N2CCCCC2)cc(F)n1 (stereo not shown) [Example 218, 6-(6-fluoro-4-(piperidin-1-yl)pyridin-2-yl)-5-methyl-2-(pyridin-2-yl)-5,6,7,8-tetrahydropyrido[4,3-d]pyrimidine] | 22 nM | –
CC1c2cnc(-c3ncccn3)nc2CCN1c1cc(F)c(F)c(OCC(=O)NC2CCOC2)c1 (stereo not shown) [Example 83, 2-[2,3-difluoro-5-(5-methyl-2-pyrimidin-2-yl-7,8-dihydro-5H-pyrido[4,3-d]pyrimidin-6-yl)phenoxy]-N-tetrahydrofuran-3-yl-acetamide] | 190 nM | –
COc1cc(N2CCc3nc(-c4ncccn4)ncc3C2C)cc(F)c1F (single isomer, unassigned; (+)) [Example 16, (+)-6-(3,4-difluoro-5-methoxy-phenyl)-5-methyl-2-pyrimidin-2-yl-7,8-dihydro-5H-pyrido[4,3-d]pyrimidine] | – | 1520 nM
CC1c2cnc(-c3ncccn3)nc2CCN1c1cc(F)c(F)c(OCCCCCCN)c1 (stereo not shown) [Example 59, 6-[2,3-difluoro-5-(5-methyl-2-pyrimidin-2-yl-7,8-dihydro-5H-pyrido[4,3-d]pyrimidin-6-yl)phenoxy]hexan-1-amine] | – | 75 nM
CC1c2cnc(-c3ncccn3)nc2CCN1c1cc(F)c(F)c(OCCC[S+](C)[O-])c1 (stereo not shown) [Example 106, 6-[3,4-difluoro-5-(3-methylsulfinylpropoxy)phenyl]-5-methyl-2-pyrimidin-2-yl-7,8-dihydro-5H-pyrido[4,3-d]pyrimidine] | 208 nM | –
CC1c2cnc(-c3ncccn3)nc2CCN1c1cc(F)c(F)c(OCCC2COC2)c1 (stereo not shown) [Example 79, 6-[3,4-difluoro-5-[2-(oxetan-3-yl)ethoxy]phenyl]-5-methyl-2-pyrimidin-2-yl-7,8-dihydro-5H-pyrido[4,3-d]pyrimidine] | 15 nM | –
COc1cc(N2CCc3nc(-c4ncccn4)ncc3C2C)cc(Cl)c1F (single isomer, unassigned; (+)) [Example 42, (+)-6-(3-chloro-4-fluoro-5-methoxy-phenyl)-5-methyl-2-pyrimidin-2-yl-7,8-dihydro-5H-pyrido[4,3-d]pyrimidine] | – | 3250 nM
CC1c2cnc(-c3ncccn3)nc2CCN1c1cc(F)c(F)c(OCCCN2CCN(C)CC2)c1 (stereo not shown) [Example 101, 6-[3,4-difluoro-5-[3-(4-methylpiperazin-1-yl)propoxy]phenyl]-5-methyl-2-pyrimidin-2-yl-7,8-dihydro-5H-pyrido[4,3-d]pyrimidine] | 113 nM | –
CC1c2cnc(-c3ncccn3)nc2CCN1c1cc(F)cc(C(=O)O)c1 (stereo not shown) [Example 176, 3-fluoro-5-(5-methyl-2-pyrimidin-2-yl-7,8-dihydro-5H-pyrido[4,3-d]pyrimidin-6-yl)benzoic acid] | 27800 nM | –
COc1cc(N2CCc3nc(-c4ccccn4)ncc3C2CC(=O)O)cc(F)c1F (stereo not shown) [Example 37, 2-[6-(3,4-difluoro-5-methoxy-phenyl)-2-(2-pyridyl)-7,8-dihydro-5H-pyrido[4,3-d]pyrimidin-5-yl]acetic acid] | 4860 nM | –
CC1c2cnc(-c3ccccn3)nc2CCN1c1cc(N(C)C)cc(F)n1 (stereo not shown) [Example 216, 2-fluoro-N,N-dimethyl-6-[5-methyl-2-(2-pyridyl)-7,8-dihydro-5H-pyrido[4,3-d]pyrimidin-6-yl]pyridin-4-amine] | 13 nM | –
CC1c2cnc(-c3ncccn3)nc2CCN1c1cc(N2CCNCC2)cc(F)n1 (stereo not shown) [Example 208, 6-(6-fluoro-4-piperazin-1-yl-2-pyridyl)-5-methyl-2-pyrimidin-2-yl-7,8-dihydro-5H-pyrido[4,3-d]pyrimidine] | 186 nM | –
CC1c2cnc(-c3ncccn3)nc2CCN1c1cc(F)c(F)c(OCCCCCCCCN)c1 (stereo not shown) [Example 55, 8-[2,3-difluoro-5-(5-methyl-2-pyrimidin-2-yl-7,8-dihydro-5H-pyrido[4,3-d]pyrimidin-6-yl)phenoxy]octan-1-amine] | 113 nM | –
CC1c2cnc(-c3ncccn3)nc2CCN1c1cc(N2CCOCC2)cc(F)n1 (stereo not shown) [Example 202, 4-[2-fluoro-6-(5-methyl-2-pyrimidin-2-yl-7,8-dihydro-5H-pyrido[4,3-d]pyrimidin-6-yl)-4-pyridyl]morpholine] | 13 nM | –
COc1cc(N2CCc3cc(-c4ncccn4)ncc3C2C)cc(F)c1-c1ccncc1 (stereo not shown) [Example 136, 2-[3-fluoro-5-methoxy-4-(4-pyridyl)phenyl]-1-methyl-6-pyrimidin-2-yl-3,4-dihydro-1H-2,7-naphthyridine] | 357 nM | –
CC(=O)N1CC(CCOc2cc(N3CCc4nc(-c5ncccn5)ncc4C3C)cc(F)c2F)C1 (stereo not shown) [Example 117, 1-[3-[2-[2,3-difluoro-5-(5-methyl-2-pyrimidin-2-yl-7,8-dihydro-5H-pyrido[4,3-d]pyrimidin-6-yl)phenoxy]ethyl]azetidin-1-yl]ethanone] | 72 nM | –
CC1c2cnc(-c3ncccn3)nc2CCN1c1cc(F)cc(C(F)(F)F)c1 (stereo not shown) [Example 81, 6-[3-fluoro-5-(trifluoromethyl)phenyl]-5-methyl-2-pyrimidin-2-yl-7,8-dihydro-5H-pyrido[4,3-d]pyrimidine] | 131 nM | –
CCC1c2cnc(-c3ccccn3)nc2CCN1c1ccc(S(C)(=O)=O)cc1 (stereo not shown) [Example 4, 5-ethyl-6-(4-methylsulfonylphenyl)-2-(2-pyridyl)-7,8-dihydro-5H-pyrido[4,3-d]pyrimidine] | 1920 nM | –
CC1c2cnc(-c3ncccn3)nc2CCN1c1cc(F)c(F)c(OCCCCCCCCNC(=O)OC(C)(C)C)c1 (stereo not shown) [Example 54, tert-butyl N-[8-[2,3-difluoro-5-(5-methyl-2-pyrimidin-2-yl-7,8-dihydro-5H-pyrido[4,3-d]pyrimidin-6-yl)phenoxy]octyl]carbamate] | 146 nM | –
CC1c2cnc(-c3ncccn3)nc2CCN1c1cc(F)c(F)c(OCCCCC(=O)O)c1 (stereo not shown) [Example 63, 5-[2,3-difluoro-5-(5-methyl-2-pyrimidin-2-yl-7,8-dihydro-5H-pyrido[4,3-d]pyrimidin-6-yl)phenoxy]pentanoic acid] | 447 nM | –
